Among the data in US8912227B1, “Bicyclic pyrrole derivatives useful as agonists of GPR120” (Janssen Pharmaceutica NV, priority 2014, dated 2014) are EC50 values, retold here.

For this assay, the target named is T1, long form of human GPR120 (Homo sapiens, UniProt Q5NUL3).
T1 construct: host or cells: PathHunter CHO-K1 GPR120 β-Arrestin Cell Line
As to the kind of experiment: Human GPR120 DiscoveRx PathHunter β-Arrestin assay, Procedure β-arrestin A. It is filed as cell-based. Conditions: PathHunter CHO-K1 GPR120 β-Arrestin cell line, 3000 cells per well. Summed up:
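PathHunter CHO-K1 β-arrestin cells (NM_181745 construct) were plated at 3000/well overnight, then held 60 min in HBSS/20 mM HEPES/0.1% BSA, pH 7.4. Compounds (dilution series 25–0.012 µM before addition) were added for 90 min at 37 °C, followed by 60 min RT luminescence detection. EC50 was fitted from % of positive control with Hill slope fixed at 1.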

T1 sequence (Q5NUL3 1-377 isoform Q5NUL3-1): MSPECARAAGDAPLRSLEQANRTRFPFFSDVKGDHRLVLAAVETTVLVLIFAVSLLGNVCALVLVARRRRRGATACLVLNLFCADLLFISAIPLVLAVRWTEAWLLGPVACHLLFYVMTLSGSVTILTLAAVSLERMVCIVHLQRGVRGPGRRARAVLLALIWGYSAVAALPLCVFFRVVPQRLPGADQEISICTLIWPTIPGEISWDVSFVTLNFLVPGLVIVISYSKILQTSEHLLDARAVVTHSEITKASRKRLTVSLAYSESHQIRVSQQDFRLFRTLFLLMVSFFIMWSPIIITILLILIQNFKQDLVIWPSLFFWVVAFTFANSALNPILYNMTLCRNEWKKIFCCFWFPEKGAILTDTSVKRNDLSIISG
T1 sequence (P32121 whole entry partner): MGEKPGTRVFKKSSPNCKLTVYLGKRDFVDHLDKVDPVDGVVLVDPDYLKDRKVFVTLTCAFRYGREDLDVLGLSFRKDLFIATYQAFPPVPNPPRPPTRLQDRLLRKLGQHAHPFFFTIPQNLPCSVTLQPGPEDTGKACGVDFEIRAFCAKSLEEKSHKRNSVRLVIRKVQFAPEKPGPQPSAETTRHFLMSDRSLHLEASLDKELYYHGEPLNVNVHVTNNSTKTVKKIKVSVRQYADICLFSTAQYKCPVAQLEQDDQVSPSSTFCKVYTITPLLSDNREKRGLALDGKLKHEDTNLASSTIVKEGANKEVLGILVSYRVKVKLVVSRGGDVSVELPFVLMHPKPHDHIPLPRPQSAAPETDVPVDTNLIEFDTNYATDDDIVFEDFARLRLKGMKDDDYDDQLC

Regarding `Cc1ccc(-n2ccc(C(F)(F)F)c2COc2c(F)cc(CCC(=O)O)cc2F)cc1` [Compound 39, 3-(3,5-difluoro-4-[[1-(4-methylphenyl)-3-(trifluoromethyl)-1H-pyrrol-2-yl]methoxy]phenyl)propanoic acid], the EC50 was found to be 264 nM.
The value for `Cc1c(CCC(=O)O)ccc(OCc2cccn2-c2ccc(Cl)cc2)c1C` [Compound 1, 3-(4-{[1-(4-Chlorophenyl)-1H-pyrrol-2-yl]methoxy}-2,3-dimethylphenyl)propanoic acid] was 1040 nM.
The compound `CCc1ccc(-n2ccc(C(F)(F)F)c2COc2ccc(CCC(=O)O)c(F)c2F)cc1` [Compound 34, 3-(4-[[1-(4-ethylphenyl)-3-(trifluoromethyl)-1H-pyrrol-2-yl]methoxy]-2,3-difluorophenyl)propanoic acid] gave an EC50 of 171 nM.
Regarding `OCCCc1ccc(OCc2c(C(F)(F)F)ccn2-c2ccc(Cl)cc2)c(F)c1F` [Compound 29, 3-(4-{[1-(4-Chlorophenyl)-3-(trifluoromethyl)-1H-pyrrol-2-yl]methoxy}-2,3-difluorophenyl)propan-1-ol], it took 53 nM to reach a half-maximal effect (EC50).

As usually defined, the EC50 is the concentration needed to bring the measured effect to its halfway point. Higher therefore signals weaker potency.
